Measured values taken from patent US20050143391A1, “Heterocyclic amides with alpha-4 integrin antagonist activity” (J. Uriach Y Compañia S.A., priority 2002, published 2005).

Molecular target: T1, integrin α4β1 (Homo sapiens, UniProt P05556+P13612)
T1 construct: endogenous in cells; host or cells: Jurkat cells
Assay: Inhibition of α4β1-dependent cell adhesion (Jurkat cells to peptide CS-1)
Assay type: cell-based
Details: adhesion of Jurkat cells to CS-1-coated plates; products preincubated with cells at 37° C. for 30 minutes; at least 6 product concentrations
Procedure: Inhibition of α4β1-Dependent Cell Adhesion
Inhibition of α4β1-dependent cell adhesion was assayed by evaluating the interaction between the peptide CS-1 (H-CLHGPEILDVPST-CONH2) and Jurkat cells (T lymphocyte cell line expressing activated integrin α4β1 but not integrin α4β7) after preincubation of said cells with the compounds of formula I to be tested. The peptide CS-1 was synthesized by conventional solid phase chemistry and purified by HPLC. Its identity was determined by elemental analysis and mass spectroscopy.
1.—Preparation of CS-1-Coated Plates
96-black well plates (Costar 3925) were used. 200 μL of 2% bovine serum albumin solution (BSA, Sigma α4503) was added per well and the plate was incubated for 2 hours at 37° C. The solution was discarded and the plate was washed twice with 200 μL of phosphate buffered saline solution (PBS, Gibco 14190-094) per well. Then, 200 μL of 10 μg/mL N-succinimidyl 3-(2-pyridyldithio)propionate solution (SPDP, Sigma P-3415) was added per well, and the plate was incubated at 37° C. for 30 minutes. The remaining solution was discarded and the plate was twice washed with 200 μL per well of PBS. Next, 200 μL of 25 μg/mL CS-1 peptide solution (equivalent to 5 μg/well) was added per well and the plate was incubated at 37° C. for 2 hours and then overnight at 4° C.
2.—Jurkat Cell Line: Culture and Fluorescent Labelling
Jurkat cells were kept in culture at a density comprised between 2×10^5 and 1.5×10^6 cells/mL in 1640 RPMI medium (Gibco 21875-034) enriched with 10% fetal calf serum (FCS, Gibco 10270-106).
50×10^6 cells were extracted, centrifuged (1200 rpm, 10 min, room temperature) and the medium was discarded. Cells were resuspended in 5 mL of RPMI, and 10 μL of a 1 mM solution of the fluorophore calceine.AM (Molecular Probes, C-3100) was added. The suspension was incubated for 30 min at 37° C. in the darkness, with occasional shaking. 40 mL of RPMI was added to stop the labelling and the suspension was centrifuged (1200 rpm, 10 min, room temperature). The medium was discarded, and the labelled cells were washed with 40 mL of RPMI in order to remove the unincorporated fluorescent probe. Finally, cells were resuspended in RPMI enriched with 10% FCS to obtain a 8×10^6 cells/mL suspension.
The plate previously prepared was twice washed with 200 μL per well of PBS and blocked with 200 μL of 1% BSA for at least 1 hour at room temperature.
The products to be tested were dissolved in dimethylsulfoxide at a concentration of 10 mM and dilutions thereof were prepared in RPMI medium enriched with 10% FCS. The products were preincubated with the Jurkat cells at 37° C. for 30 minutes, at a product concentration comprised between 1 nM and 10 μM, at a cell density of 4×10^6 cells/mL and at a maximal dimethylsulfoxide concentration of 0.1%.
100 μL of the resulting cell-product supsension was added per well (cellular density 4×10^5 cells/well). The product was omitted in the control wells and cells or CS-1 were omitted in the blanks. The plate was incubated for 60 min at room temperature in the-darkness, was twice washed with 200 μL per well of RPMI and then 100 μL of PBS was added. The plate was read with a fluorescence reader at an excitation wavelength of 485 nm and at an emission wavelength of 530 nm.
Maximal adhesion (100%) was determined as the average of the fluorescence intensities (FI) of the control wells, and the minimal adhesion as the average FI of the blanks. The adhesion inhibition percentage was determined using the following formula: [formula]
The results are expressed as the IC50 values (concentration producing 50% inhibition). IC50 values were calculated by testing at least 6 product concentrations and by adjusting the inhibition percentages to a dose-response curve of variable slope.

T1 sequence (P13612 34-1032): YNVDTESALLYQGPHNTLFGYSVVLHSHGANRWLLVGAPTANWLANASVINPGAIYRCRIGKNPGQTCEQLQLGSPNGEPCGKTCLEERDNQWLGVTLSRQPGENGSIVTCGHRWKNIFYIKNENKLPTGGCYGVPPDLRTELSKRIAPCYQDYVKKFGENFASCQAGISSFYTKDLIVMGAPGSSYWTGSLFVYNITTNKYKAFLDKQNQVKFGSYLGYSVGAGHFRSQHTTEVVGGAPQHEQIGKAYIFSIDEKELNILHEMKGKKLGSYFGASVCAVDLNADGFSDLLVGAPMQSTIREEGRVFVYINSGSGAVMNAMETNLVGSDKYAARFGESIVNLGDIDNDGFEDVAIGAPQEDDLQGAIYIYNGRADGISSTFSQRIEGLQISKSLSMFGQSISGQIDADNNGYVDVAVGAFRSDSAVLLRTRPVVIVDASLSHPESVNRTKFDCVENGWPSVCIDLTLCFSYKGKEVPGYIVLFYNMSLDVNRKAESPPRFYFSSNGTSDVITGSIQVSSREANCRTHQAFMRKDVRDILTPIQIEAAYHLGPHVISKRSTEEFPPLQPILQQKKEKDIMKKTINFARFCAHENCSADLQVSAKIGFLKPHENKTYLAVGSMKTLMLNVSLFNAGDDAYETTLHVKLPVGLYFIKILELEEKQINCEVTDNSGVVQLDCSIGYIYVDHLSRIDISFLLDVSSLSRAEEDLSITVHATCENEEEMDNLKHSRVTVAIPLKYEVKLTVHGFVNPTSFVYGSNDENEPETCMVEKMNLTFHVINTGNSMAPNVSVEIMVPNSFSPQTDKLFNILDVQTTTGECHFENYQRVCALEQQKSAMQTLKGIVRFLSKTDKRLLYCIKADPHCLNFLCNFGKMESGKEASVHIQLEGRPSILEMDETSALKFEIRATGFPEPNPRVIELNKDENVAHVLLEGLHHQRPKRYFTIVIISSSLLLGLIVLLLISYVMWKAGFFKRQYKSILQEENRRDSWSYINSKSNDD
T1 sequence (P05556 21-798): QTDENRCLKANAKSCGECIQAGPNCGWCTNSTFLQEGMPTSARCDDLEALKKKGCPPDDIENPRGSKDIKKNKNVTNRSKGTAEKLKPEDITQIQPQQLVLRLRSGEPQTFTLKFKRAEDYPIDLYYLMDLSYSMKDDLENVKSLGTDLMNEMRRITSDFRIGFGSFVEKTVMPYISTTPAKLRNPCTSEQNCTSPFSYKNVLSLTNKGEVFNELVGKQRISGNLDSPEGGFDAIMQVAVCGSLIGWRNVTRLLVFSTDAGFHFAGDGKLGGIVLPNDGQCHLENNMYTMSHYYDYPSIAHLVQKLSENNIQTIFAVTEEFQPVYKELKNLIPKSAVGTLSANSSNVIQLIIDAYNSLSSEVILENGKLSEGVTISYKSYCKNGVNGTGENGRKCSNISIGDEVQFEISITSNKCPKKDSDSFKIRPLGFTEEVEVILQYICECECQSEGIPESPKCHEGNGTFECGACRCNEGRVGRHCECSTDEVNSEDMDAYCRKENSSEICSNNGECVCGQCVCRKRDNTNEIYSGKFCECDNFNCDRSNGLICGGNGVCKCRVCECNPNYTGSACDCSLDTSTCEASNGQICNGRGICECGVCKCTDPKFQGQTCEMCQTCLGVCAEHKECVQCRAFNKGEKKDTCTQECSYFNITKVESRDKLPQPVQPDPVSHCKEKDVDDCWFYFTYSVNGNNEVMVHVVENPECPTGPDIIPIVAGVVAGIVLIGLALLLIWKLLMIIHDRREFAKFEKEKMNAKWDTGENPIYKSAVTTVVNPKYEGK

Row | IC50 | SMILES
1 | 65 nM | CN(C)CC1CCN(C(=O)CC[C@H](NC(=O)[C@@H]2CCCN2S(=O)(=O)c2cc(Cl)cc(Cl)c2)C(=O)O)CC1 [Example 83, (2S)-2-[1-(3,5-Dichlorophenylsulfonyl)-L-prolylamino]-5-[4-(dimethylaminomethyl)piperidin-1-yl]-5-oxopentanoic Acid]
2 | 122 nM | CN1CCN(C(=O)NCC2CCN(C(=O)CC[C@H](NC(=O)[C@@H]3CCCN3S(=O)(=O)c3cc(Cl)cc(Cl)c3)C(=O)O)CC2)CC1 [Example 97, (2S)-2-[1-(3,5-Dichlorophenylsulfonyl)-L-prolylamino]-5-[4-[[(4-methylpiperazin-1-yl)carbonylamino]methyl]piperidin-1-yl]-5-oxopentanoic Acid]
3 | 188 nM | Cc1ccc(S(=O)(=O)N2CCC[C@H]2C(=O)N[C@@H](CCC(=O)N2CCC(CN3CCCC3=O)CC2)C(=O)O)cc1 [Example 62, (2S)-5-Oxo-5-[4-[(2-oxopyrrolidin-1-yl)methyl]piperidin-1-yl]-2-[1-tosyl-L-prolylamino]pentanoic Acid]
4 | 14.1 nM | O=C(O)[C@H](CCC(=O)N1CCC(CN2CCCCC2)CC1)NC(=O)[C@@H]1CCCN1S(=O)(=O)c1cc(Cl)cc(Cl)c1 [Example 94, (2S)-2-[1-(3,5-Dichlorophenylsulfonyl)-L-prolylamino]-5-oxo-5-[4-(1-piperidylmethyl)piperidin-1-yl]pentanoic Acid]
5 | 11.6 nM | CC(C)S(=O)(=O)NCC1CCN(C(=O)CC[C@H](NC(=O)[C@@H]2CCCN2S(=O)(=O)c2cc(Cl)cc(Cl)c2)C(=O)O)CC1 [Example 60, (2S)-2-[1-(3,5-Dichlorophenylsulfonyl)-L-prolylamino]-5-[4-[(isopropylsulfonylamino)methyl]piperidin-1-yl]-5-oxopentanoic Acid]
6 | 22 nM | O=C(O)[C@H](CCC(=O)N1CCC(CN2Cc3ccccc3C2=O)CC1)NC(=O)[C@@H]1CCCN1S(=O)(=O)c1cc(Cl)cc(Cl)c1 [Example 54, (2S)-5-[4-[(1-Oxoisoindolin-2-yl)methyl]piperidin-1-yl]-2-[1-(3,5-dichlorophenylsulfonyl)-L-prolylamino]-5-oxopentanoic Acid]
7 | 193 nM | Cc1ccc(S(=O)(=O)N2CCC[C@H]2C(=O)N[C@@H](CCC(=O)N2CCC(CNc3nccc(C(F)(F)F)n3)CC2)C(=O)O)cc1 [Example 64, (2S)-5-Oxo-2-[1-tosyl-L-prolyl]amino-5-[4-[[4-(trifluoromethyl)pyrimidin-2-yl]aminomethyl]piperidin-1-yl]pentanoic Acid]
8 | 247 nM | Cc1ccc(S(=O)(=O)N2CCC[C@H]2C(=O)N[C@@H](CCC(=O)N2CCN(Cc3cccs3)CC2)C(=O)O)cc1 [Example 77, (2S)-5-Oxo-5-[4-(2-thienylmethyl)piperazin-1-yl]-2-[[1-tosyl-L-prolyl]amino]pentanoic Acid]
9 | 15 nM | Cc1nc2cnccc2n1CC1CCN(C(=O)CC[C@H](NC(=O)[C@@H]2CCCN2S(=O)(=O)c2cc(Cl)cc(Cl)c2)C(=O)O)CC1 [Example 72, (2S)-2-[1-(3,5-Dichlorophenylsulfonyl)-L-prolylamino]-5-[4-(2-methylimidazo[4,5-c]pyridin-1-ylmethyl)piperidin-1-yl]-5-oxopentanoic Acid]
10 | 37 nM | O=C(O)[C@H](CCC(=O)N1CCC(CN2CCCC2=O)CC1)NC(=O)[C@@H]1CCCN1S(=O)(=O)c1cc(Cl)cc(Cl)c1 [Example 71, (2S)-2-[1-(3,5-Dichlorophenylsulfonyl)-L-prolylamino]-5-[4-(2-oxopyrrolidin-1-ylmethyl)piperidin-1-yl]-5-oxopentanoic Acid]
11 | 120 nM | Cc1ccc(S(=O)(=O)N2CCC[C@H]2C(=O)N[C@@H](CNC(=O)N2CCC(CN3CCCCC3)CC2)C(=O)O)cc1 [Example 105, (2S)-3-[[4-(1-Piperidylmethyl)piperidin-1-ylcarbonyl]amino]-2-[N-tosyl-L-prolyl]aminopropionic Acid]
12 | 4.9 nM | CN(C)CC1CCN(C(=O)NC[C@H](NC(=O)[C@@H]2CCCN2S(=O)(=O)c2cc(Cl)cc(Cl)c2)C(=O)O)CC1 [Example 95, (2S)-2-[1-(3,5-Dichlorophenylsulfonyl)-L-prolyl]amino-3-[[4 (dimethylaminomethyl)piperidin-1-ylcarbonyl]amino]propionic Acid]
13 | 13.3 nM | CCc1nc2c(C)cc(C)nc2n1CCC1CCN(C(=O)CC[C@H](NC(=O)[C@@H]2CCCN2S(=O)(=O)c2cc(Cl)cc(Cl)c2)C(=O)O)CC1 [Example 59, (2S)-2-[1-(3,5-Dichlorophenylsulfonyl)-L-prolylamino]-5-[4-[2-(2-ethyl-5,7-dimethylimidazo[4,5-b]pyridin-3-yl)ethyl]piperidin-1-yl]-5-oxopentanoic Acid]
14 | 17.7 nM | CN(C)CC1CCN(C(=O)OC[C@H](NC(=O)[C@@H]2CCCN2S(=O)(=O)c2cc(Cl)cc(Cl)c2)C(=O)O)CC1 [Example 98, (2S)-2-[1-(3,5-Dichlorophenylsulfonyl)-L-prolyl]amino-3-[4-(dimethylaminomethyl)piperidin-1-ylcarbonyloxy]propionic Acid]
15 | 7.7 nM | Cc1nc2cnccc2n1CC1CCN(C(=O)NC[C@H](NC(=O)[C@@H]2CCCN2S(=O)(=O)c2cc(Cl)cc(Cl)c2)C(=O)O)CC1 [Example 89, (2S)-2-[1-(3,5-Dichlorophenylsulfonyl)-L-prolyl]amino-3-[[4-(2-methylimidazo[4,5-c]pyridin-1-ylmethyl)piperidin-1-ylcarbonyl]amino]propionic Acid]
16 | 9.8 nM | CN1CCN(C(=O)OCCC2CCN(C(=O)NC[C@H](NC(=O)[C@@H]3CCCN3S(=O)(=O)c3cc(Cl)cc(Cl)c3)C(=O)O)CC2)CC1 [Example 116, (2S)-2-[1-(3,5-Dichlorophenylsulfonyl)-L-prolyl]amino-3-[[4-[2-[(4-methylpiperazin-1-yl)carbonyloxy]ethyl]piperidin-1-ylcarbonyl]amino]propionic Acid]
17 | 58 nM | CC(C)CC(=O)NCC1CCN(C(=O)CC[C@H](NC(=O)[C@@H]2CCCN2S(=O)(=O)c2cc(Cl)cc(Cl)c2)C(=O)O)CC1 [Example 55, (2S)-2-[1-(3,5-Dichlorophenylsulfonyl)-L-prolylamino]-5-[4-[(3-methylbutanoylamino)methyl]piperidin-1-yl]-5-oxopentanoic Acid]
18 | 74.8 nM | CCNCC1CCN(C(=O)CC[C@H](NC(=O)[C@@H]2CCCN2S(=O)(=O)c2cc(Cl)cc(Cl)c2)C(=O)O)CC1 [Example 96, (2S)-2-[1-(3,5-Dichlorophenylsulfonyl)-L-prolylamino]-5-[4-[(ethylamino)methyl]piperidin-1-yl]-5-oxopentanoic Acid]
19 | 14.1 nM | CC(C)Nc1nc2cnccc2n1CC1CCN(C(=O)CC[C@H](NC(=O)[C@@H]2CCCN2S(=O)(=O)c2cc(Cl)cc(Cl)c2)C(=O)O)CC1 [Example 87, (2S)-2-[1-(3,5-Dichlorophenylsulfonyl)-L-prolylamino]-5-[(2-isopropylaminoimidazo[4,5-c]pyridin-1-ylmethyl)piperidin-1-yl]-5-oxopentanoic Acid]
20 | 4.6 nM | CCc1nc2cnccc2n1CC1CCN(C(=O)NC[C@H](NC(=O)[C@@H]2CCCN2S(=O)(=O)c2cc(Cl)cc(Cl)c2)C(=O)O)CC1 [Example 123, Lithium (2S)-2-[1-(3,5-dichlorophenylsulfonyl)-L-prolyl]amino-3-[[4-(2-ethylimidazo[4,5-c]pyridin-1-ylmethyl)piperidin-1-ylcarbonyl]amino]propionate]
21 | 166 nM | CC(C)NC(=S)NCC1CCN(C(=O)CC[C@H](NC(=O)[C@@H]2CCCN2S(=O)(=O)c2cc(Cl)cc(Cl)c2)C(=O)O)CC1 [Example 58, (2S)-2-[1-(3,5-Dichlorophenylsulfonyl)-L-prolylamino]-5-[4-[(N′-isopropylthioureido)methyl]piperidin-1-yl]-5-oxopentanoic Acid]
